Where only a bound is given, the exact number is not on record here.

The target in assay [1] is T1, Mer (Homo sapiens (Human), UniProt Q12866). Briefly: Human Mer kinase assay (33P radiometric, KinaseProfiler). As to conditions: 10 μM ATP. The assay is classed as biochemical.
Target sequence in this assay (Q12866 557-882): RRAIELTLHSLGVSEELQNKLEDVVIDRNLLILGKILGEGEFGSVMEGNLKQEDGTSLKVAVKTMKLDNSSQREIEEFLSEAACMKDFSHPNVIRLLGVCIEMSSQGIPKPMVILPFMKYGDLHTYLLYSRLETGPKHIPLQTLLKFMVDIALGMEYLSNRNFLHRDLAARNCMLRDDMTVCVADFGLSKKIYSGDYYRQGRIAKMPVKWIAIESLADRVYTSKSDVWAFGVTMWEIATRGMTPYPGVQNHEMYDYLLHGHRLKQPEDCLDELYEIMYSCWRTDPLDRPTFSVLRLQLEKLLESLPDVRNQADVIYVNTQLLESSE
The next assay addresses AXL (Homo sapiens (Human), UniProt P30530). Description: AXL autophosphorylation ELISA in A-172 cells. As to conditions: cellular, Gas6-stimulated, phospho-AXL ELISA. The format is cell-based. In outline: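 A-172 glioblastoma cells, serum-starved 24 h, got 8-point compound dilutions (0.3% DMSO) for 1 h, then 1 μg/mL human Gas6 for 15 min. Phospho-AXL in lysates was quantified by ELISA against a standard, normalized between DMSO and reference-inhibitor controls; IC50 by 4-parameter logistic fit.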
Background: In an ELISA, binding on a coated surface is turned into a signal by an enzyme label.

Assay [2] concerns the target T1, Mer. Briefly: Mer autophosphorylation ELISA in transient transfected 293A cells. The assay is classed as cell-based. As to conditions: cellular, MERTK-transfected 293A cells, phospho-Mer ELISA.
Target sequence in this assay (Q12866 21-999): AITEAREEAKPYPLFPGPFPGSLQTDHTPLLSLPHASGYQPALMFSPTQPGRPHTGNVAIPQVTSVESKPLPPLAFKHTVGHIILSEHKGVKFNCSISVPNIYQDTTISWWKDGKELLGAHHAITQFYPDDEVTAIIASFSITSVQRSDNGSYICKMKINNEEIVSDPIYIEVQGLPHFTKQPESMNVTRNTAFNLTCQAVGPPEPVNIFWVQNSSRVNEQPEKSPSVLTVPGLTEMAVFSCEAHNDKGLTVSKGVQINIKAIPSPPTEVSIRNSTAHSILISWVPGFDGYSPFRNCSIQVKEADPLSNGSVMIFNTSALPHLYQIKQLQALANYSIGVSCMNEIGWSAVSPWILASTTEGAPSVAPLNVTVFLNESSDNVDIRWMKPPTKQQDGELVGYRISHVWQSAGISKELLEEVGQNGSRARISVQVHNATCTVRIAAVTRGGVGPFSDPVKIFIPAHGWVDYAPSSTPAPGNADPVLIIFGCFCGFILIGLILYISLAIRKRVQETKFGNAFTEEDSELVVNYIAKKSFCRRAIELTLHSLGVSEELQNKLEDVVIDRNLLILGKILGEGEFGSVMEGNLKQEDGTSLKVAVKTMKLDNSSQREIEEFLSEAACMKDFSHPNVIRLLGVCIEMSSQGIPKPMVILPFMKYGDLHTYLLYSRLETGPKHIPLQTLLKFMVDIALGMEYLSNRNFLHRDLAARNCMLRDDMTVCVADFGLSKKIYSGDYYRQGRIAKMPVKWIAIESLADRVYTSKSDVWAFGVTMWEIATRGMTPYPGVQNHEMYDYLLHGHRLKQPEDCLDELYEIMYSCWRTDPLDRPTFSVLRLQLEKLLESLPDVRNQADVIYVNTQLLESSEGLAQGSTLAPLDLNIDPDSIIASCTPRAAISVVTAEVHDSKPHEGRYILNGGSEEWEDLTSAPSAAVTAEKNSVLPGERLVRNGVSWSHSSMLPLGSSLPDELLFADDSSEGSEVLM

AXL, sequence (P30530 26-894): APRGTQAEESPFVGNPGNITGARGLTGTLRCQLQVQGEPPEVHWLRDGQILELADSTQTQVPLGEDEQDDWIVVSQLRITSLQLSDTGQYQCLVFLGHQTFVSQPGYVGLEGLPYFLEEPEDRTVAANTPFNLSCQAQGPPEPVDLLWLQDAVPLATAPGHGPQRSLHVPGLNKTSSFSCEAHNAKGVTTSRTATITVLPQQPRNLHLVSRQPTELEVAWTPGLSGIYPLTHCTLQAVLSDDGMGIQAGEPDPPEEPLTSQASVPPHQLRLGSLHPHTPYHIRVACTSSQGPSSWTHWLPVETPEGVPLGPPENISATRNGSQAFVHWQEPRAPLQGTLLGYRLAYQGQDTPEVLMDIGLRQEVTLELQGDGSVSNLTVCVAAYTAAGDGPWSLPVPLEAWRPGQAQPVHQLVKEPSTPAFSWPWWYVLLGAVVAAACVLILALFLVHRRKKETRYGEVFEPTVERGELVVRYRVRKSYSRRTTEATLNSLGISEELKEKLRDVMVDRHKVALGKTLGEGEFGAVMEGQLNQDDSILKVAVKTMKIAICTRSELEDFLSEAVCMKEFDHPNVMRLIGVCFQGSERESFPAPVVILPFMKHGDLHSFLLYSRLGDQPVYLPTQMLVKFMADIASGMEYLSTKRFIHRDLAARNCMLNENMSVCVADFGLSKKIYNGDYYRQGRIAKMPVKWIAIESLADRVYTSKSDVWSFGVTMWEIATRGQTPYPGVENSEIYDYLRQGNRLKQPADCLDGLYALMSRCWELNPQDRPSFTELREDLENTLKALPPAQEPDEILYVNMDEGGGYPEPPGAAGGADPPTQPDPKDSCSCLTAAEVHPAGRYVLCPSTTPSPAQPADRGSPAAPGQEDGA

Take `COc1cc2ncnc(Oc3ccc(NC(=O)C4(C(=O)Nc5ccc(F)cc5)CC4)cc3)c2nc1OC` [Compound 28, 1-N-[4-(6,7-dimethoxy-pyrido[3,2-d]pyrimidin-4-yl)oxyphenyl]-1-N′-(4-fluorophenyl)cyclo-propane-1,1-dicarboxamide]: the IC50 was not above 10 nM on Mer [1], 10 to 100 nM against AXL and 10 to 100 nM against Mer [2].
On to `COc1cc2ncnc(Oc3ccc(NC(=O)C4(C(=O)Nc5ccc(F)cc5)CC4)cc3Cl)c2nc1OC` [Compound 29, 1-N′-[3-chloro-4-(6,7-dimethoxypyrido[3,2-d]pyrimidin-4-yl)oxyphenyl]-1-N-(4-fluorophenyl)cyclo-propane-1,1-dicarboxamide], for which the IC50 was not above 10 nM at Mer [1] and 10 to 100 nM on AXL.
On to `COc1cc2ncnc(Oc3ccc(NC(=O)C4(C(=O)Nc5ccc(F)cc5)CC4)cc3F)c2nc1OC` [Compound 30, 1-N′-[4-(6,7-dimethoxypyrido[3,2-d]pyrimidin-4-yl)oxy-3-fluorophenyl]-1-N-(4-fluorophenyl)cyclopropane-1,1-dicarboxamide], for which the IC50 on Mer [1], at AXL and against Mer [2] was not above 10 nM throughout.
In the case of `COc1nc2c(Oc3ccc(NC(=O)C4(C(=O)Nc5ccc(F)cc5)CC4)cc3)ncnc2cc1OCCCN1CCOCC1` [Compound 65, 1-N′-(4-fluorophenyl)-1-N-[4-[6-methoxy-7-(3-morpholin-4-ylpropoxy)pyrido[3,2-d]pyrimidin-4-yl]oxyphenyl]cyclopropane-1,1-dicarboxamide], the IC50 on Mer [1] is not above 10 nM; at AXL, not above 10 nM; at Mer [2], 10 to 100 nM.
Consider `COc1nc2c(Oc3ccc(NC(=O)C4(C(=O)Nc5ccc(F)cc5)CC4)cc3Cl)ncnc2cc1OCCCN1CCOCC1` [Compound 66, 1-N′-[3-chloro-4-[6-methoxy-7-(3-morpholin-4-ylpropoxy)pyrido[3,2-d]pyrimidin-4-yl]oxyphenyl]-1-N-(4-fluorophenyl)cyclo-propane-1,1-dicarboxamide], for which the IC50 against Mer [1] and at AXL was not above 10 nM each time.
Consider `COc1nc2c(Oc3ccc(NC(=O)C4(C(=O)Nc5ccc(F)cc5)CC4)cc3F)ncnc2cc1OCCCN1CCOCC1` [Compound 67, 1-N′-[3-fluoro-4-[6-methoxy-7-(3-morpholin-4-ylpropoxy)pyrido[3,2-d]pyrimidin-4-yl]oxyphenyl]-1-N-(4-fluorophenyl)cyclo-propane-1,1-dicarboxamide], for which the IC50 at Mer [1], against AXL and against Mer [2] was not above 10 nM throughout.
For `COc1cc2c(Oc3ccc(NC(=O)C4(C(=O)Nc5ccc(F)cc5)CC4)cc3)ncnc2cn1` [Compound 91, 1-N′-(4-fluorophenyl)-1-N-[4-(6-methoxypyrido[3,4-d]pyrimidin-4-yl)oxyphenyl]cyclopropane-1,1-dicarboxamide], the IC50 against Mer [1] was 10 to 100 nM; on AXL it was more than 300 nM.
For the compound `COc1cc2ncnc(Oc3ccc(NC(=O)C4(C(=O)Nc5ccc(F)cc5)CC4)cc3)c2cn1` [Compound 104, 1-N′-(4-fluorophenyl)-1-N-[4-(7-methoxypyrido[4,3-d]pyrimidin-4-yl)oxy-phenyl]cyclopropane-1,1-dicarboxamide], the IC50 against Mer [1] was 10 to 100 nM; at AXL, more than 300 nM.
On to `COc1cc2ncnc(Oc3ccc(NC(=O)C4(C(=O)Nc5ccc(F)cc5)CC4)cc3)c2cc1C(=O)NC1COC1` [Compound 115, 1-N′-(4-fluorophenyl)-1-N-[4-[7-methoxy-6-(oxetan-3-ylcarbamoyl)quinazolin-4-yl]oxyphenyl]cyclopropane-1,1-dicarboxamide], for which the IC50 was 10 to 100 nM against Mer [1] and more than 300 nM at AXL.
As to `COc1cc2ncnc(Oc3ccc(NC(=O)C4(C(=O)Nc5ccc(F)cc5)CC4)cc3)c2cc1C(=O)NC1CC1` [Compound 116, 1-N-[4-[6-(cyclopropylcarbamoyl)-7-methoxyquinazolin-4-yl]oxyphenyl]-1-N′-(4-fluorophenyl)cyclopropane-1,1-dicarboxamide], the IC50 against Mer [1] was in the range of 10 to 100 nM; against AXL, 100 to 300 nM.
In the same order, the values of `COc1cc2ncnc(Oc3ccc(NC(=O)C4(C(=O)Nc5ccc(F)cc5)CC4)cc3)c2cc1C(N)=O` [Compound 117, 1-N-[4-(6-carbamoyl-7-methoxyquinazolin-4-yl)oxyphenyl]-1-N′-(4-fluorophenyl)cyclopropane-1,1-dicarboxamide] are not above 10 nM and not above 10 nM.
Consider `COc1cc2ncnc(Oc3ccc(NC(=O)C4(C(=O)Nc5ccc(F)cc5)CC4)cc3)c2cc1C(=O)NCCN1CCCC1` [Compound 118, 1-N′-(4-fluorophenyl)-1-N-[4-[7-methoxy-6-(2-pyrrolidin-1-ylethyl-carbamoyl)quinazolin-4-yl]oxyphenyl]cyclopropane-1,1-dicarboxamide], for which the IC50 was not above 10 nM against Mer [1], 10 to 100 nM against AXL and 10 to 100 nM against Mer [2].
For the compound `COc1cc2ncnc(Oc3ccc(NC(=O)C4(C(=O)Nc5ccc(F)cc5)CC4)cc3)c2cc1C(=O)NC[C@H]1CCCN1C(=O)OC(C)(C)C` [Compound 119, tert-butyl (2R)-2-[[[4-[4-[[1-[(4-fluoro-phenyl)carbamoyl]cyclo-propane-carbonyl]amino]phenoxy]-7-methoxyquinazoline-6-carbonyl]amino]methyl]pyr-rolidine-1-carboxylate], the IC50 is 10 to 100 nM on Mer [1] and 100 to 300 nM at AXL.
As to `COc1cc2ncnc(Oc3ccc(NC(=O)C4(C(=O)Nc5ccc(F)cc5)CC4)cc3)c2cc1C(=O)NC[C@@H]1CCCN1C(=O)OC(C)(C)C` [Compound 120, tert-butyl (2S)-2-[[[4-[4-[[1-[(4-fluoro-phenyl)carbamoyl]cyclo-propane-carbonyl]amino]phenoxy]-7-methoxyquinazoline-6-carbonyl]amino]methyl]pyr-rolidine-1-carboxylate], the IC50 on Mer [1] is 10 to 100 nM; on AXL, more than 300 nM.
Turning to `COc1cc2ncnc(Oc3ccc(NC(=O)C4(C(=O)Nc5ccc(F)cc5)CC4)cc3)c2cc1C(=O)NC[C@H]1CCCN1` [Compound 121, 1-N′-(4-fluorophenyl)-1-N-[4-[7-methoxy-6-[[(2R)-pyrrolidin-2-yl]methyl-carbamoyl]quinazolin-4-yl]oxyphenyl]cyclopropane-1,1-dicarboxamide], the IC50 against Mer [1] was not above 10 nM; at AXL it was 10 to 100 nM.
For `COc1cc2ncnc(Oc3ccc(NC(=O)C4(C(=O)Nc5ccc(F)cc5)CC4)cc3)c2cc1C(=O)NC[C@@H]1CCCN1` [Compound 122, 1-N′-(4-fluorophenyl)-1-N-[4-[7-methoxy-6-[[(2S)-pyrrolidin-2-yl]methyl-carbamoyl]quinazolin-4-yl]oxyphenyl]cyclopropane-1,1-dicarboxamide], in that order: not above 10 nM and 10 to 100 nM.
Consider `COc1cc2nccc(Oc3ccc(NC(=O)C4(C(=O)Nc5ccc(F)cc5)CC4)cc3)c2nc1OC` [Compound 139, 1-N-[4-[(6,7-dimethoxy-1,5-naphthyridin-4-yl)oxy]phenyl]-1-N′-(4-fluorophenyl)cyclo-propane-1,1-dicarboxamide], for which the IC50 on Mer [1], on AXL and on Mer [2] was not above 10 nM in each case.
In the case of `COc1cc2nccc(Oc3ccc(NC(=O)C4(C(=O)Nc5ccc(F)cc5)CC4)cc3F)c2nc1OC` [Compound 140, 1-N′-[4-[(6,7-dimethoxy-1,5-naphthyridin-4-yl)oxy]-3-fluorophenyl]-1-N-(4-fluorophenyl)cyclopropane-1,1-dicarboxamide], the IC50 at Mer [1], on AXL and at Mer [2] was not above 10 nM each time.
As for `COc1cc2nccc(Oc3ccc(NC(=O)C4(C(=O)Nc5ccc(F)cc5)CC4)cc3Cl)c2nc1OC` [Compound 141, 1-N′-[3-chloro-4-[(6,7-dimethoxy-1,5-naphthyridin-4-yl)oxy]phenyl]-1-N-(4-fluorophenyl)cyclo-propane-1,1-dicarboxamide], the IC50 against Mer [1] is not above 10 nM; against AXL it was 10 to 100 nM.

In general, IC50 refers to the concentration that gives 50% inhibition. The low end stands for greater potency, the high end for weaker potency.

For the origin of these results see patent publication US11708367B2, “Compounds for the treatment of kinase-dependent disorders” (Exelixis, Inc., priority 2018, dated 2023).
